ChEMBL document CHEMBL4011590, “Structure-activity relationship studies on 3,5-dinitrophenyl tetrazoles as antitubercular agents” (Eur J Med Chem, 2017)
Converted amounts (≈) assume the structure as drawn.

How the values were obtained:
Klebsiella pneumoniae [1] = assay: Antibacterial activity against Klebsiella pneumoniae HK11750/08 after 24 hrs by broth microdilution method; assay type: functional; settings: HK11750/08, 24 h
Klebsiella pneumoniae [2] = assay: Antibacterial activity against extended spectrum beta-lactamase producing Klebsiella pneumoniae HK14368/08 after 48 hrs by broth microdilution method; assay type: functional; settings: HK14368/08, 48 h
Aspergillus fumigatus [3] = assay: Antifungal activity against Aspergillus fumigatus 231 after 24 hrs by broth microdilution method; assay type: functional; settings: Aspergillus fumigatus, 231, 24 h
Klebsiella pneumoniae [4] = assay: Antibacterial activity against Klebsiella pneumoniae HK11750/08 after 48 hrs by broth microdilution method; assay type: functional; settings: HK11750/08, 48 h
Mycobacterium avium [5] = assay: Antimycobacterial activity against Mycobacterium avium CNCTC My 330/80 after 14 days by micromethod; assay type: functional; settings: CNCTC My 330/80, 336 h
Mycobacterium kansasii [6] = assay: Antimycobacterial activity against Mycobacterium kansasii CNCTC My 235/80 after 21 days by micromethod; assay type: functional; settings: CNCTC My 235/80, 504 h
Candida tropicalis [7] = assay: Antifungal activity against Candida tropicalis 156 after 48 hrs by broth microdilution method; assay type: functional; settings: Candida tropicalis, 156, 48 h
Mycobacterium kansasii [8] = assay: Antimycobacterial activity against Mycobacterium kansasii isolate 6509/96 after 7 days by micromethod; assay type: functional; settings: isolate 6509/96, 168 h
Escherichia coli [9] = assay: Antibacterial activity against Escherichia coli ATCC 8739 after 24 hrs by broth microdilution method; assay type: functional; settings: ATCC 8739, 24 h
[10] = system: Staphylococcus epidermidis; assay: Antibacterial activity against Staphylococcus epidermidis HK6966/08 after 48 hrs by broth microdilution method; assay type: functional; settings: HK6966/08, 48 h
[11] = system: Staphylococcus epidermidis; assay: Antibacterial activity against Staphylococcus epidermidis HK6966/08 after 24 hrs by broth microdilution method; assay type: functional; settings: HK6966/08, 24 h
Staphylococcus aureus [12] = assay: Antibacterial activity against Staphylococcus aureus ATCC 6538 after 48 hrs by broth microdilution method; assay type: functional; settings: ATCC 6538, 48 h
Pseudomonas aeruginosa [13] = assay: Antibacterial activity against Pseudomonas aeruginosa ATCC 9027 after 48 hrs by broth microdilution method; assay type: functional; settings: ATCC 9027, 48 h
Mycobacterium avium [14] = assay: Antimycobacterial activity against Mycobacterium avium CNCTC My 330/80 after 21 days by micromethod; assay type: functional; settings: CNCTC My 330/80, 504 h
Trichosporon asahii [15] = assay: Antifungal activity against Trichosporon asahii 1188 after 24 hrs by broth microdilution method; assay type: functional; settings: Trichosporon asahii, 1188, 24 h
[16] = system: Trichophyton mentagrophytes; assay: Antifungal activity against Trichophyton mentagrophytes 445 after 72 hrs by broth microdilution method; assay type: functional; settings: Trichophyton mentagrophytes, 445, 72 h
Mycobacterium kansasii [17] = assay: Antimycobacterial activity against Mycobacterium kansasii CNCTC My 235/80 after 14 days by micromethod; assay type: functional; settings: CNCTC My 235/80, 336 h
Nakaseomyces glabratus [18] = assay: Antifungal activity against Candida glabrata 20/I after 48 hrs by broth microdilution method; assay type: functional
Staphylococcus aureus [19] = assay: Antibacterial activity against Staphylococcus aureus ATCC 6538 after 24 hrs by broth microdilution method; assay type: functional; settings: ATCC 6538, 24 h
Mycobacterium kansasii [20] = assay: Antimycobacterial activity against Mycobacterium kansasii isolate 6509/96 after 14 days by micromethod; assay type: functional; settings: isolate 6509/96, 336 h
Klebsiella pneumoniae [21] = assay: Antibacterial activity against extended spectrum beta-lactamase producing Klebsiella pneumoniae HK14368/08 after 24 hrs by broth microdilution method; assay type: functional; settings: HK14368/08, 24 h
[22] = system: Mycobacterium tuberculosis; assay: Antimycobacterial activity against Mycobacterium tuberculosis H37Rv CNCTC My 331/88 after 21 days by micromethod; assay type: functional; settings: H37Rv CNCTC My 331/88, 504 h
Nakaseomyces glabratus [23] = assay: Antifungal activity against Candida glabrata 20/I after 24 hrs by broth microdilution method; assay type: functional
[24] = system: Mycobacterium tuberculosis; assay: Antimycobacterial activity against Mycobacterium tuberculosis H37Rv CNCTC My 331/88 after 14 days by micromethod; assay type: functional; settings: H37Rv CNCTC My 331/88, 336 h
Candida albicans [25] = assay: Antifungal activity against Candida albicans ATCC 44859 after 24 hrs by broth microdilution method; assay type: functional; settings: ATCC 44859, 24 h
Mycobacterium kansasii [26] = assay: Antimycobacterial activity against Mycobacterium kansasii isolate 6509/96 after 21 days by micromethod; assay type: functional; settings: isolate 6509/96, 504 h
Mycobacterium kansasii [27] = assay: Antimycobacterial activity against Mycobacterium kansasii CNCTC My 235/80 after 7 days by micromethod; assay type: functional; settings: CNCTC My 235/80, 168 h
Candida tropicalis [28] = assay: Antifungal activity against Candida tropicalis 156 after 24 hrs by broth microdilution method; assay type: functional; settings: Candida tropicalis, 156, 24 h
Enterococcus sp. [29] = assay: Antibacterial activity against Enterococcus sp. HK14365/08 after 48 hrs by broth microdilution method; assay type: functional; settings: HK14365/08, 48 h
Pseudomonas aeruginosa [30] = assay: Antibacterial activity against Pseudomonas aeruginosa ATCC 9027 after 24 hrs by broth microdilution method; assay type: functional; settings: ATCC 9027, 24 h
Staphylococcus aureus [31] = assay: Antibacterial activity against methicillin-resistant Staphylococcus aureus HK5996/08 after 48 hrs by broth microdilution method; assay type: functional; settings: HK5996/08, 48 h
Pichia kudriavzevii [32] = assay: Antifungal activity against Candida krusei E28 after 48 hrs by broth microdilution method; assay type: functional; settings: E28, 48 h
Enterococcus sp. [33] = assay: Antibacterial activity against Enterococcus sp. HK14365/08 after 24 hrs by broth microdilution method; assay type: functional; settings: HK14365/08, 24 h
CHO-K1 = assay: Cytotoxicity against CHOK1 cells after 24 hrs by MTT assay; assay type: cell-based; settings: Cricetulus griseus, CHO-K1, 24 h
Candida albicans [34] = assay: Antifungal activity against Candida albicans ATCC 44859 after 48 hrs by broth microdilution method; assay type: functional; settings: ATCC 44859, 48 h
Trichosporon asahii [35] = assay: Antifungal activity against Trichosporon asahii 1188 after 48 hrs by broth microdilution method; assay type: functional; settings: Trichosporon asahii, 1188, 48 h
Aspergillus fumigatus [36] = assay: Antifungal activity against Aspergillus fumigatus 231 after 48 hrs by broth microdilution method; assay type: functional; settings: Aspergillus fumigatus, 231, 48 h
Lichtheimia corymbifera [37] = assay: Antifungal activity against Absidia corymbifera 272 after 24 hrs by broth microdilution method; assay type: functional; settings: Lichtheimia corymbifera, 272, 24 h
Escherichia coli [38] = assay: Antibacterial activity against Escherichia coli ATCC 8739 after 48 hrs by broth microdilution method; assay type: functional; settings: ATCC 8739, 48 h
Lichtheimia corymbifera [39] = assay: Antifungal activity against Absidia corymbifera 272 after 48 hrs by broth microdilution method; assay type: functional; settings: Lichtheimia corymbifera, 272, 48 h
[40] = system: Trichophyton mentagrophytes; assay: Antifungal activity against Trichophyton mentagrophytes 445 after 120 hrs by broth microdilution method; assay type: functional; settings: Trichophyton mentagrophytes, 445, 120 h
Staphylococcus aureus [41] = assay: Antibacterial activity against methicillin-resistant Staphylococcus aureus HK5996/08 after 24 hrs by broth microdilution method; assay type: functional; settings: HK5996/08, 24 h
Pichia kudriavzevii [42] = assay: Antifungal activity against Candida krusei E28 after 24 hrs by broth microdilution method; assay type: functional; settings: E28, 24 h

O=[N+]([O-])c1cc(-c2nnn(Cc3ccc(Br)cc3)n2)cc([N+](=O)[O-])c1
MIC (Klebsiella pneumoniae [1]): > 125 µM | MIC (Klebsiella pneumoniae [2]): > 125 µM | MIC (Aspergillus fumigatus [3]): > 500 µM | MIC (Klebsiella pneumoniae [4]): > 125 µM | MIC99 (Mycobacterium avium [5]): 4 µM (≈ 1.62 µg/mL) | MIC99 (Mycobacterium kansasii [6]): 1 µM (≈ 0.405 µg/mL) | MIC (Candida tropicalis [7]): > 500 µM | MIC99 (Mycobacterium kansasii [8]): 0.25 µM (≈ 0.101 µg/mL) | MIC (Escherichia coli [9]): > 125 µM | MIC [10]: 31.2 µM (≈ 12.7 µg/mL) | MIC [11]: 31.2 µM (≈ 12.7 µg/mL) | MIC (Staphylococcus aureus [12]): 62.5 µM (≈ 25.3 µg/mL) | MIC (Pseudomonas aeruginosa [13]): > 125 µM | MIC99 (Mycobacterium avium [14]): 8 µM (≈ 3.24 µg/mL) | MIC (Trichosporon asahii [15]): > 500 µM | MIC [16]: > 500 µM | MIC99 (Mycobacterium kansasii [17]): 1 µM (≈ 0.405 µg/mL) | MIC (Nakaseomyces glabratus [18]): > 500 µM | MIC (Staphylococcus aureus [19]): 62.5 µM (≈ 25.3 µg/mL) | MIC99 (Mycobacterium kansasii [20]): 1 µM (≈ 0.405 µg/mL) | MIC (Klebsiella pneumoniae [21]): > 125 µM | MIC99 [22]: 0.25 µM (≈ 0.101 µg/mL) | MIC (Nakaseomyces glabratus [23]): > 500 µM | MIC99 [24]: 0.25 µM (≈ 0.101 µg/mL) | MIC (Candida albicans [25]): > 500 µM | MIC99 (Mycobacterium kansasii [26]): 1 µM (≈ 0.405 µg/mL) | MIC99 (Mycobacterium kansasii [27]): 0.25 µM (≈ 0.101 µg/mL) | MIC (Candida tropicalis [28]): > 500 µM | MIC (Enterococcus sp. [29]): > 125 µM | MIC (Pseudomonas aeruginosa [30]): > 125 µM | MIC (Staphylococcus aureus [31]): > 125 µM | MIC (Pichia kudriavzevii [32]): > 500 µM | MIC (Enterococcus sp. [33]): > 125 µM | IC50 (CHO-K1): 55 µM | MIC (Candida albicans [34]): > 500 µM | MIC (Trichosporon asahii [35]): > 500 µM | MIC (Aspergillus fumigatus [36]): > 500 µM | MIC (Lichtheimia corymbifera [37]): > 500 µM | MIC (Escherichia coli [38]): > 125 µM | MIC (Lichtheimia corymbifera [39]): > 500 µM | MIC [40]: > 500 µM | MIC (Staphylococcus aureus [41]): > 125 µM | MIC (Pichia kudriavzevii [42]): > 500 µM
